Like-named read-outs stand apart in the source and are kept apart here.
How the values were obtained:
[1] = test system: NIH/3T3 cells transfected with control vector; assay: NIH/3T3 mock cell proliferation assay (counter assay, CellTiter Glo); format: cell-based; settings: Mus musculus, top concentration 30 μM, counter assay for general toxicity, read-out: NIH/3T3 MOCK CTG (IC50)
Protocol: NIH/3T3 Mock Cell Proliferation Assay
In day 1, 90 μL of cell suspension (NIH/3T3 cells transfected with the same control vector as in the above two proliferation assays) (total 30,000 cells per well in growth medium (DMEM containing 1% Glutamax, 10% FBS and 1% Pen/Strep)) was seeded in a 96-well plate and then incubated overnight at 37° C. and 5% CO2. In day 2, 10 μL of growth medium containing 10-fold stock solution of testing compound was added into cell cultures (9 dose points with 3× serial dilution, starting with 30 μM, 0.3% DMSO final). After 72-hr incubation at 37° C. and 5% CO2, in day 5 a volume of 50 μL CellTiter Glo (CTG) reagent was added into cell-containing 96-well plate and the plate was incubated at room temperature for 10 minutes before RLUs (relative light unit) were measured on a microplate reader with luminescence detection module.

[2] = biological target: T1, human FGFR3 wild type enzyme (cytoplasmic domain) (Homo sapiens, UniProt P22607); assay: FGFR3 wild type mobility shift assay (enzymatic assay); format: biochemical; settings: 75 μM ATP, 50 minutes at 30° C, Caliper EZ reader II
T1 construct: human FGFR3 wild type enzyme (cytoplasmic domain, from Carna Biosciences); purchased Carna Biosciences
Description: FGFR3 Wild Type Mobility Shift Assay (Enzymatic Assay)

[3] = biological target: T2, NIH/3T3 cells overexpressing FGFR3 WT-TACC3 fusion protein (Homo sapiens, UniProt P22607); assay: NIH/3T3 FGFR3 WT-TACC3 cell proliferation assay (CellTiter Glo); format: cell-based; settings: 72-hr incubation, top concentration 10 μM, read-out: NIH/3T3 FGFR3 WT-TACC3 CTG (IC50)
T2 construct: NIH/3T3 FGFR3 WT-TACC3 CTG (IC50); other: 72-hr incubation, CellTiter Glo, top concentration 10 μM; fused on or other part: Q9Y6A5 (Transforming acidic coiled-coil-containing protein 3)
Protocol: NIH/3T3 FGFR3 WT-TACC3 Cell Proliferation Assay
In day 1, 90 μL of cell suspension (NIH/3T3 cells overexpressing FGFR3 WT-TACC3 fusion protein) (total 30,000 cells per well in growth medium (DMEM containing 1% Glutamax, 10% FBS and 1% Pen/Strep)) was seeded in a 96-well plate and then incubated overnight at 37° C. and 5% CO2. […] After 72-hr incubation at 37° C. and 5% CO2, in day 5 a volume of 50 μL CellTiter Glo (CTG) reagent was added into cell-containing 96-well plate and the plate was incubated at room temperature for 10 minutes before RLUs (relative light unit) were measured on a microplate reader with luminescence detection module.

T2 sequence (P22607 whole entry, change not shown, the tested form may be a part): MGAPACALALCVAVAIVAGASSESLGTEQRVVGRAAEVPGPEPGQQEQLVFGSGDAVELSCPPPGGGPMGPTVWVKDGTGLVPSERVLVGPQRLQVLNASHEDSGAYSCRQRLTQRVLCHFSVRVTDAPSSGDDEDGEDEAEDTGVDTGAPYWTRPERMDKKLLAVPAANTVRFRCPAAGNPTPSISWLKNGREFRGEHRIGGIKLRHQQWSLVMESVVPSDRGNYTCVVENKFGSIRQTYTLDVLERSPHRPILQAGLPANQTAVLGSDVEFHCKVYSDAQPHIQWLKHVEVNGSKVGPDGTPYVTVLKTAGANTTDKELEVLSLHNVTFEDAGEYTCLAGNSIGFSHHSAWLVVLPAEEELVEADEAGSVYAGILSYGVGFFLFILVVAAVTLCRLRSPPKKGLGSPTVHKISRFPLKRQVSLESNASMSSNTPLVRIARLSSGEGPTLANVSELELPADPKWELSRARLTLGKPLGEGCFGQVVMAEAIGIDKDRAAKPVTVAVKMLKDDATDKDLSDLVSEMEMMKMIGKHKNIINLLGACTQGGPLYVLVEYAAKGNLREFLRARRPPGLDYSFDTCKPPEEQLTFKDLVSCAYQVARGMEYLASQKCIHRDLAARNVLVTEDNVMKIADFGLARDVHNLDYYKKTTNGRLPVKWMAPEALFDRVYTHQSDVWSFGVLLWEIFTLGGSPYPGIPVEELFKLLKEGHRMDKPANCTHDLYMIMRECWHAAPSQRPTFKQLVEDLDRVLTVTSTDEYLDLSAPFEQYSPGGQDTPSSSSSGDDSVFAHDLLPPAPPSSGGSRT
T1 sequence (P22607 397-806 limits assumed): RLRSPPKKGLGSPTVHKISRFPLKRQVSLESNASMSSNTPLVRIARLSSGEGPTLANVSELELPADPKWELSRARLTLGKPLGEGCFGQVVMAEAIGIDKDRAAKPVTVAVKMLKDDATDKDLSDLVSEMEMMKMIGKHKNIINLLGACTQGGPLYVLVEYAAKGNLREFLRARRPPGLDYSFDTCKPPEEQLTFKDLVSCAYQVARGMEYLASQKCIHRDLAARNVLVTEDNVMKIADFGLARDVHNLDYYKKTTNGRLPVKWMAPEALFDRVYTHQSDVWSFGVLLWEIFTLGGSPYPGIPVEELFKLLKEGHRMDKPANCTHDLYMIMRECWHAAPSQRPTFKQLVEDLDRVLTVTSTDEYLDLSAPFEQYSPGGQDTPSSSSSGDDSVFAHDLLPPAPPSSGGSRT

| IC50 [2] | GI50 [3] | SMILES | IC50 ([1]; NIH3T3, 72 h, 72-hr incubation) | IC50 ([1]; NIH3T3, 72-hr incubation) |
| --- | --- | --- | --- | --- |
| 1.04 nM | 12.6 nM | CCn1cc2[nH]c(=O)c(-c3nc4cnc(N5CCOCC5)cc4[nH]3)c(N[C@@H](C)c3ncccn3)c2n1 [Compound 43, (S)-2-ethyl-6-(6-morpholino-1H-imidazo[4,5-c]pyridin-2-yl)-7-((1-(pyrimidin-2-yl)ethyl)-amino)-2H-pyrazolo[4,3-b]pyridin-5(4H)-one] | 415 nM | – |
| 0.881 nM | 16.3 nM | CCC(Nc1c(-c2nc3ccc(N4CCOCC4)cc3[nH]2)c(=O)[nH]c2cn(C)nc12)c1ncccn1 (single isomer, unassigned) [Compound 39, (S*)-2-methyl-6-(6-morpholino-1H-benzo[d]imidazol-2-yl)-7-((1-(pyrimidin-2-yl)-propyl)amino)-2H-pyrazolo[4,3-b]pyridin-5(4H)-one] | 458 nM | – |
| 2.03 nM | 17.4 nM | CCn1cc2[nH]c(=O)c(-c3nc4cnc(N5CCOCC5)cc4[nH]3)c(N[C@@H](C)c3ccccn3)c2n1 [Compound 47, (S)-2-ethyl-6-(6-morpholino-1H-imidazo[4,5-c]pyridin-2-yl)-7-((1-(pyridin-2-yl)ethyl)-amino)-2,4-dihydro-5H-pyrazolo[4,3-b]pyridin-5-one] | 1040 nM | – |
| 0.704 nM | 4.11 nM | COc1cc2nc(-c3c(N[C@@H](C)c4ncccn4)c4nn(C)cc4[nH]c3=O)[nH]c2cc1N1CCOCC1 [Compound 52, (S)-6-(5-methoxy-6-morpholino-1H-benzo[d]imidazol-2-yl)-2-methyl-7-((1-(pyrimidin-2-yl)ethyl)amino)-2H-pyrazolo[4,3-b]pyridin-5(4H)-one] | 390 nM | – |
| 17.5 nM | 258 nM | C[C@H](Nc1c(-c2nc3ccc(N4CCCCC4)cc3[nH]2)c(=O)[nH]c2cn(C)nc12)c1ccccn1 [Compound 33, (S)-2-methyl-6-(6-(piperidin-1-yl)-1H-benzo[d]imidazol-2-yl)-7-((1-(pyridin-2-yl)ethyl)-amino)-2H-pyrazolo[4,3-b]pyridin-5(4H)-one] | 6530 nM | – |
| 0.839 nM | 49.6 nM | CC(Nc1c(-c2nc3ccc(OC4CCOCC4)cc3[nH]2)c(=O)[nH]c2cn(C)nc12)c1cocn1 (single isomer, unassigned) [Compound 36, (S*)-2-methyl-7-((1-(oxazol-4-yl)ethyl)amino)-6-(6-((tetrahydro-2H-pyran-4-yl)oxy)-1H-benzo[d]imidazol-2-yl)-2H-pyrazolo[4,3-b]pyridin-5(4H)-one] | 753 nM | – |
| 469 nM | – | COCC(Nc1c(-c2nc3c(F)cc(N4CCOCC4)cc3[nH]2)c(=O)[nH]c2cn(C)nc12)c1ncccn1 (single isomer, unassigned) [Compound 30, (R*)-6-(4-fluoro-6-morpholino-1H-benzo[d]imidazol-2-yl)-7-((2-methoxy-1-(pyrimidin-2-yl)ethyl)amino)-2-methyl-2H-pyrazolo[4,3-b]pyridin-5(4H)-one] | – | – |

The next lines start with the compound.

| SMILES | IC50 [2] | GI50 [3] | IC50 ([1]; NIH3T3, 72 h, 72-hr incubation) | IC50 ([1]; NIH3T3, 72-hr incubation) |
| --- | --- | --- | --- | --- |
| CCn1cc2[nH]c(=O)c(-c3nc4c(F)cc(N5CCOCC5)cc4[nH]3)c(N[C@@H](C)c3ncccn3)c2n1 [Compound 6, (S)-2-ethyl-6-(4-fluoro-6-morpholino-1H-benzo[d]imidazol-2-yl)-7-((1-(pyrimidin-2-yl)-ethyl)amino)-2,4-dihydro-5H-pyrazolo[4,3-b]pyridin-5-one] | 1.16 nM | 13.8 nM | 1280 nM | – |
| CC(Nc1c(-c2nc3ccc(N4CCOCC4)c(F)c3[nH]2)c(=O)[nH]c2cn(C)nc12)c1ncccn1 (single isomer, unassigned) [Compound 14, (S*)-6-(7-fluoro-6-morpholino-1H-benzo[d]imidazol-2-yl)-2-methyl-7-((1-(pyrimidin-2-yl)ethyl)amino)-2H-pyrazolo[4,3-b]pyridin-5(4H)-one] | 1.9 nM | 4.06 nM | 424 nM | – |
| CC(Nc1c(-c2nc3ccc(N4CCN(CC(F)(F)F)CC4)cc3[nH]2)c(=O)[nH]c2cn(C)nc12)c1ncccn1 (single isomer, unassigned) [Compound 26, (S*)-2-methyl-7-((1-(pyrimidin-2-yl)ethyl)amino)-6-(6-(4-(2,2,2-trifluoroethyl)piperazin-1-yl)-1H-benzo[d]imidazol-2-yl)-2H-pyrazolo[4,3-b]pyridin-5(4H)-one] | 0.637 nM | 5.96 nM | 768 nM | – |
| CC(Nc1c(-c2nc3cc(C(F)(F)F)c(N4CCOCC4)cc3[nH]2)c(=O)[nH]c2cn(C)nc12)c1ncccn1 (racemic) [Compound 19, (Rac)-2-Methyl-6-(6-morpholino-5-(trifluoromethyl)-1H-benzo[d]imidazol-2-yl)-7-((1-(pyrimidin-2-yl)ethyl)amino)-2H-pyrazolo[4,3-b]pyridin-5(4H)-one] | 8.17 nM | 21.5 nM | 3990 nM | – |
| CC(Nc1c(-c2nc3ccc(N4C[C@@H](C)O[C@H](C)C4)cc3[nH]2)c(=O)[nH]c2cn(C)nc12)c1ncccn1 (single isomer, unassigned) [Compound 12, 6-(6-((2R,6R)-2,6-dimethylmorpholino)-1H-benzo[d]imidazol-2-yl)-2-methyl-7-(((S*)-1-(pyrimidin-2-yl)ethyl)amino)-2H-pyrazolo[4,3-b]pyridin-5(4H)-one] | – | – | – | 454 nM |
| CC(Nc1c(-c2nc3cc(F)c(N4CCOCC4)cc3[nH]2)c(=O)[nH]c2cn(C)nc12)c1ncccn1 (single isomer, unassigned) [Compound 9, (S*)-6-(5-Fluoro-6-morpholino-1H-benzo[d]imidazol-2-yl)-2-methyl-7-((1-(pyrimidin-2-yl)ethyl)amino)-2H-pyrazolo[4,3-b]pyridin-5(4H)-one] | 0.618 nM | 17.1 nM | 691 nM | – |
| C[C@H](Nc1c(-c2nc3ccc(N4CCO[C@H](C(F)(F)F)C4)cc3[nH]2)c(=O)[nH]c2cn(C)nc12)c1ncccn1 (relative stereo) [Compound 8, 2-Methyl-7-(((S*)-1-(pyrimidin-2-yl)ethyl)amino)-6-(6-((S*)-2-(trifluoromethyl)-morpholino)-1H-benzo[d]imidazol-2-yl)-2H-pyrazolo[4,3-b]pyridin-5(4H)-one] | 0.542 nM | 6.78 nM | 444 nM | – |
| C[C@H](Nc1c(-c2nc3ccc(N4CCOC(F)(F)C4)cc3[nH]2)c(=O)[nH]c2cn(C)nc12)c1ncccn1 [Compound 25, (S)-6-(6-(2,2-difluoromorpholino)-1H-benzo[d]imidazol-2-yl)-2-methyl-7-((1-(pyrimidin-2-yl)ethyl)amino)-2H-pyrazolo[4,3-b]pyridin-5(4H)-one] | 0.495 nM | 22.3 nM | 1210 nM | – |
| CC(Nc1c(-c2nc3ccc(N4CCCCC4)c(F)c3[nH]2)c(=O)[nH]c2cn(C)nc12)c1ncccn1 (single isomer, unassigned) [Compound 15, (S*)-6-(7-fluoro-6-(piperidin-1-yl)-1H-benzo[d]imidazol-2-yl)-2-methyl-7-((1-(pyrimidin-2-yl)ethyl)amino)-2H-pyrazolo[4,3-b]pyridin-5(4H)-one] | 1.06 nM | 16.9 nM | 3700 nM | – |
| CC(Nc1c(-c2nc3cc(C(F)(F)F)c(N4CCOCC4)cc3[nH]2)c(=O)[nH]c2cn(C)nc12)c1cocn1 (single isomer, unassigned) [Compound 10, (S*)-2-methyl-6-(6-morpholino-5-(trifluoromethyl)-1H-benzo[d]imidazol-2-yl)-7-((1-(oxazol-4-yl)ethyl)amino)-2H-pyrazolo[4,3-b]pyridin-5(4H)-one] | – | – | – | 18400 nM |
| CCn1cc2[nH]c(=O)c(-c3nc4ccc(N5CCOCC5)cc4[nH]3)c(NC(C)c3cocn3)c2n1 (single isomer, unassigned) [Compound 4B, (R*)-2-ethyl-6-(6-morpholino-1H-benzo[d]imidazol-2-yl)-7-((1-(oxazol-4-yl)ethyl)-amino)-2H-pyrazolo[4,3-b]pyridin-5(4H)-one] | 657 nM | – | – | – |
| CC(Nc1c(-c2nc3ccc(N4CCCCC4)c(F)c3[nH]2)c(=O)[nH]c2cn(C)nc12)c1ncccn1 (single isomer, unassigned) [Compound 16, (R*)-6-(7-fluoro-6-(piperidin-1-yl)-1H-benzo[d]imidazol-2-yl)-2-methyl-7-((1-(pyrimidin-2-yl)ethyl)amino)-2H-pyrazolo[4,3-b]pyridin-5(4H)-one] | 38.1 nM | – | – | – |

Source: patent US11691970B2, “Pyrazolopyridinone compounds” (Janssen Pharmaceutica NV, priority 2017, dated 2023)
